These results are taken from US9750728B2, “Method and pharmaceutical composition for inhibiting PI3K/AKT/mTOR signaling pathway” (TARGETED THERAPEUTICS, LLC, priority 2012, dated 2017).

Assay [1] relates to AKT phosphorylation (S473). Put plainly: Immunoblot analysis of AKT phosphorylation in cancer cells. The assay is classed as cell-based. As to conditions: for AKT phosphorylation: two days; for AKT phosphorylation (S473): ZPP 400 μM or Y29794 1 μM; for rapamycin-induced increase in phosphorylation of AKT: rapamycin 10 nM plus ZPP 200 μM or Y29794 0.5 μM, 24 hours. The procedure: 2.2 Immunoblot analysis of gene silencing of PRCP or PREP in cancer cells. Mouse anti-PRCP antibody was purchased from Abcam (Cambridge, Mass., USA). Goat anti-PREP antibody was purchased from R&D Systems (Minneapolis, Minn., USA). Mouse anti-R-actin antibody antibodies was from Santa Cruz Biotechnology (Santa Cruz, Calif., USA). Panc-1 pancreatic cancer cells and MCF7 breast cancer cells were cultured to 80% confluence, cells were rinsed three times with pre-cooled PBS, 500 μl of lysis buffer (150 mmol/L Nacl, 1% Triton-x-100, 50 mmol/l TrispH8.0, 1 mmol/L PMSF, 1 ug/L aprotinin, 1 ug/L leupeptin, 1 ug/L peptain) was added to the cells. Cells were scraped and transferred to a centrifuge tube with a pipette. The lysates were spun in a microcentrifuge at maximal speed for 10 minutes at 4° C. to get rid of the insoluble fraction. Protein concentration was determined by Bradford assay. For immunoprecipitation: 2-5 ug protein-specific antibodies were added to 250-500 ug of lysates in a tube and incubated on an ordital shaker 4° C. for 2-4 hours with moderate shaking, then 20 ul Protein G beads (Santa Cruz Biotechnology (Santa Cruz, Calif., USA.) were added and the mixture was incubated with moderate shaking for another hour. After washing the beads in lysis buffer five times, the immunoprecipitates were boiled in 2× Laemmli sample buffer (50 mmoL/L Tris-HCL (pH8.0), 100 mmoL/L DTT, 2% SDS, 0.1% bromophenol blue, 10% glycerol) for five minutes. The proteins were separated by conventional SDS-polyacrylamide gel electrophoresis (SDS-PAGE) electrophoresis and transferred to Amersham Hybond-P PVDF membrane (GE Company, Pittsburgh, Pa., USA). For immunoblot, the membrane was blocked in 2% BSA in TBST buffer (Tris 1.21 g+NaCl 5.84 g+800 ml H2O adjusted to pH 8.0 with HCl) for one hour and then incubated with primary antibodies in TBST at room temperature (22-25° C.) for 2 hours. After washing three times with TBST, the membrane was incubated with HRP-conjugated secondary antibodies for 0.5 hours at room temperature. After washing the membrane five times with TBST (5 minutes/each), the membrane was incubated with ECL chromogenic reagent (GE Company, Pittsburgh, Pa., USA) for 1-5 minutes. The blots were exposed to films in darkroom for 1-5 minute. The films were developed in an automatic X-OMAT Developer (KODAK, Rochester, N.Y., USA). […] PREP gene silencing (PREP KD) or PRCP gene silencing (PRCP KD) or gene silencing both PRCP and PREP (DKD) in MCF7 cells reduces expression of PREP and/or PRCP proteins compared with control cells (control) (FIGS. 6B & 6C).
3.1 Reduction in AKT phosphorylation is examined by immunoblot using rabbit anti-phospho-AKT […] and rabbit anti-pan AKT antibodies purchased from Cell Signaling Technology (Danvers, Mass., USA) in the cells with gene silencing of PRCP and/or PREP or treated with ZPP or Y29794. Reduction in PRCP and/or PREP is shown by Western blot and quantitative PCR described in 2.2.
A general note: A western blot detects proteins with antibodies after separation by electrophoresis.

Assay [2] has as its system Panc-1. In words: MTT cell viability assay. The assay is classed as cell-based. The procedure:
1.1. ZPP and Y29794 induces cytotoxicity to cancer cells by MTT analysis of cell viability. Cells were placed in 96-well plates (3×10^3 cells/well) in octuplicate. The cells were then treated with vehicle or different doses of ZPP for 4 days. Cells were then loaded with 1.2 mM MTT (4,5-Dimethylthiazol-2-vn-2,5-diphenvltetrazolium bromide, a yellow tetrazole) in phenol red-free medium for 4 hours. The cells were then lysed in 10% SDS/0.01M HCL. MTT absorbance (570 nm spectrum) was measured by a microplate reader. The relative absorbance is normalized to the control (vehicle-treated) to indicate relative cell viability. ZPP was purchased from Biomol (Plymouth Meeting, Pa., USA). MTT was purchased from Sigma-Aldrich. Panc-1 and Capan-1 pancreatic cancer cell line, MCF7 and T47D breast cancer cell lines, A549 and HI 703 lung cancer Cell lines were purchased from American Type Culture Collection (ATCC, USA) preparation of pancreatic cancer cell line PK-9 have been disclosed, e.g., Kobari M et al, (1986) Tohoku J Exp Med. 150: 231-248; Etoh T et al, (2003) Clin Cancer Res 9; 1218; Arafat H. et al, (2011) Surgery 150 (2): 306-315. Cells were grown in Dulbecco's Modified. Eagle's (DMEM) medium (Invitrogen, Carlsbad, Calif.) containing 10% fetal bovine serum (FBS) (Hyclone, purchased from Thermo Fisher Scientific, Inc). […] […] Y29794 oxalate was purchased from Tocris Biosciences (Bristol, UK).
(Tetrazolium assays rely on reduction of a dye to a coloured formazan, in cell work by metabolically active cells.)

Consider `CC(C)c1ccc(C(=O)c2cccs2)c(SCCCCCCCCN(C)C)n1` [Y29794, [2-[8-(dimethylamino)octylsulfanyl]-6-propan-2-ylpyridin-3-yl]-thiophen-2-ylmethanone], for which the AKT phosphorylation entry in assay [1] (MCF7, Y29794 0.5 μM, vs vehicle (ethanol)) was “significantly decreased”; in assay [1] (PK-9, ZPP 200 μM or Y29794 0.5 μM, vs vehicle) it was “significantly decreased”; in assay [1] (Panc-1, ZPP 200 μM or Y29794 0.5 μM, vs vehicle), “significantly decreased”. Besides, the “AKT phosphorylation (S473)” value is listed as “reduced” in assay [1] (MCF7, vs vehicle (FIG. 8B, 8E legend)); “reduced” in assay [1] (PK-9, vs vehicle (FIG. 8A, 8F legend)); “reduced” in assay [1] (Panc-1, vs vehicle (FIG. 8C, 8D legend)). The “rapamycin-induced increase in phosphorylation of AKT” value in assay [1] (MCF7) and in assay [1] (Panc-1) was “blocked” throughout. For the same compound, the “phosphorylated AKT (S473)” value in assay [1] (Panc-1, ZPP 400 μM alone (FIG. 10A legend) or Y29794 0.5 μM alone (FIG. 11A legend)) is recorded as “reduced”. Also, the “MTT absorbance (relative cell viability)” value in assay [2] (Panc-1, different doses, 4 days) was “dose-dependent cytotoxicity”. For the same compound, the “cell viability (MTT), combination” value in assay [2] (Panc-1, various concentration of Y29794 with 0.5 nM rapamycin, three days (FIG. 16A legend)) was “synergistic reduction”; in assay [2] (Panc-1, various concentration of rapamycin with 25 nM Y29794, three days (FIG. 16B legend)) it was “synergistic reduction”.
